Test [1] addresses phosphorylated EGFR (pEGFR) (Homo sapiens (Human), UniProt P00533). As to the kind of experiment: Detection of phosphorylated EGFR (pEGFR) by AlphaLISA in A431 cells. The class given is cell-based. Conditions: A431 cells (10% FBS), 4 hours incubation, EGF 30 ng/mL for 10 minutes. A digest of the protocol:
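A431 cells in 10% FBS exposed to compound for 4 h at 37 °C, then stimulated 10 min with 30 ng/mL EGF. Lysates assayed for phospho-EGFR by AlphaLISA. % inhibition relative to DMSO and staurosporine controls; IC50 from four-parameter curve fit.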
For orientation: In Alpha technology, singlet oxygen from a donor bead excites a nearby acceptor bead.

Another test concerns Ba/F3 ERBB2 YVMA. The experiment in a line: Cell viability assay (CellTiter Glo, 72 hours). The class given is cell-based, mouse. As to the method:
Cells were treated with compounds, and cell viability was measured as a metric of kinase inhibition.
BT-474, A431, MDA-MB-175VII, NCI-H1781, MCF7, and Ba/F3 cell lines were tested. The Ba/F3 cell line is IL-3-dependent mouse cell line derived from the C3H mouse strain. Ba/F3 cell lines were engineered to express human ERBB2 or EGFR kinases, rendering the cells IL-3 independent. The lines were generated via retroviral transduction utilizing a Moloney murine leukemia virus (MMLV) promoter, and constructs are stably integrated into the cell genome. The sequences of the ERBB2 and EGFR genes used were NCBI Reference Sequences NM_004448.3 and NM_005228.3, respectively.
BT-474, A431, MDA-MB-175VII, NCI-H1781 and MCF7 cells were grown in the appropriate growth medium as described in Table B2 below, and harvested at 50-80% confluence. BT-474, A431, MDA-MB-175VII, NCI-H1781 and MCF7 cells were counted and seeded at 2,000 or 1,500 cells per well in 384-well tissue culture plates (see Table B2). Similarly, Ba/F3 cell lines engineered to express EGFR, ERBB2, or ERBB2 mutants were grown, harvested, counted and seeded at 3000 cells per well in 96-well plates. A subset of wells contained media only (low control, “LC”).
Table B1 provides the growth media and number of cells seeded per well for the each cell line.
Compounds were dissolved in DMSO and serially diluted. Serially-diluted compound or a DMSO only control (high control, “HC”) was added to the plated cells in each well. Compounds were tested at concentrations of about 10 μM to 0.51 nM, using three-fold dilutions. The final proportion of DMSO never exceeded 0.1%.
Plates were placed in a 37° C., 5% CO2 incubator for 72 hours. Plates were then removed from the incubator and equilibrated for 15 minutes at room temperature. 40 μl of CellTiter Glo reagent (Promega) was added to measure the relative level of metabolically active cells by quantifying intracellular ATP concentrations. Plates were incubated for 30 minutes at room temperature, and luminescence was measured. Percent viability was normalized to a vehicle control only using the following formula: % viability=100×(LumSample−LumLC)/(LumHC−LumLC). Graphical curves were fitted using a nonlinear regression model with a sigmoidal dose response.
On the technique in general: ATP-based viability assays read luminescence as a measure of living cells.

Test [2] has as its target phosphorylated ERBB2 (pERBB2) (Homo sapiens (Human), UniProt P04626). As to the kind of experiment: Detection of phosphorylated ERBB2 (pERBB2) by ELISA in BT-474 cells. The class given is cell-based. Particulars: four hours incubation with compound. An outline of the steps: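 BT-474 cells were exposed to serially diluted compounds for 4 h at 37 °C, then lysed. Phospho-ERBB2 in lysates was captured by ELISA and detected with an HRP anti-phosphotyrosine antibody and TMB.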
A general note: ELISA stands for enzyme-linked immunosorbent assay.

[3] abbreviates: Mus musculus, BaF3, 72 h, read-out: Ba/F3 ERBB2 YVMA, IC50, nM.
The mark [4] stands for this setting: Mus musculus, BaF3, 72 h, Ba/F3 cells engineered to express human ERBB2 YVMA mutant, 72 hours, CellTiter Glo viability, read-out: Ba/F3 ERBB2 YVMA, IC50.
Where [5] appears, read: Ba/F3 cells engineered to express human ERBB2 YVMA mutant, 72 hours, CellTiter Glo viability, read-out: Ba/F3 ERBB2 YVMA, IC50.

The results in this text go back to patent publication US20230382923A1, “FUSED TETRACYCLIC QUINAZOLINE DERIVATIVES AS INHIBITORS OF ERBB2” (EnLiven Therapeutics, Inc., priority 2021, published 2023).

Molecules are shown by their SMILES. Structures can show the parent of a compound that is named as a salt. Where two headings read alike, the source gives them in different places.

phosphorylated ERBB2 (pERBB2), sequence (P04626 23-1255): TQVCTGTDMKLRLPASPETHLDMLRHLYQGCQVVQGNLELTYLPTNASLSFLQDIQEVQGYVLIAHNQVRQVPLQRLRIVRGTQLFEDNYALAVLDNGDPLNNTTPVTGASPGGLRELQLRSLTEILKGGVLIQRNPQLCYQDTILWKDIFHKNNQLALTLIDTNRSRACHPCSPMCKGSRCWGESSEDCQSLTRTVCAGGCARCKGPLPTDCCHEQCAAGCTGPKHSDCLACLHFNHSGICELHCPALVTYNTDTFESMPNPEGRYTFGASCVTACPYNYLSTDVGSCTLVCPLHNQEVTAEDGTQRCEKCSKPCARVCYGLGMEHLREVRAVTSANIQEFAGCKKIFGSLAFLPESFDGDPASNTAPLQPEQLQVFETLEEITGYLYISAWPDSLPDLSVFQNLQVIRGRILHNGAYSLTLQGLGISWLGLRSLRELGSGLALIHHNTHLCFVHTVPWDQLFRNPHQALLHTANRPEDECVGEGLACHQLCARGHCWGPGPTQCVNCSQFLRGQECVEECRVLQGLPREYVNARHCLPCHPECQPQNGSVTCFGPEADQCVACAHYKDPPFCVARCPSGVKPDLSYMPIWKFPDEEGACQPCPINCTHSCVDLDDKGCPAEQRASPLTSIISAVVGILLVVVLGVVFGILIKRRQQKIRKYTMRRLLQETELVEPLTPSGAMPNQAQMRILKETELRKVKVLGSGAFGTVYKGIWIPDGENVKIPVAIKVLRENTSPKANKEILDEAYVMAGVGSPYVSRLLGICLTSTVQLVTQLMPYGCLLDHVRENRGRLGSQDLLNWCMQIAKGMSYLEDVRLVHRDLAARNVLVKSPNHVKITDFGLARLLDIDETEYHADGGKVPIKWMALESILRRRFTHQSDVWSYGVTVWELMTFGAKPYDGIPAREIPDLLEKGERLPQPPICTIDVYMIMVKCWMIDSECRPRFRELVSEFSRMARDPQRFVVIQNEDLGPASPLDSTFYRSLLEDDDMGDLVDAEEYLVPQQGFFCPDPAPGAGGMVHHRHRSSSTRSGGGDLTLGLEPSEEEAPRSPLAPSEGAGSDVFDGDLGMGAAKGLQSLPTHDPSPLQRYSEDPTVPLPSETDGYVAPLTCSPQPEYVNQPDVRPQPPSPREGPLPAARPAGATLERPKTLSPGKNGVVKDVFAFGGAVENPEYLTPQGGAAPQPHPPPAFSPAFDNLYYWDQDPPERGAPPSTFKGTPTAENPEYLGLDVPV
phosphorylated EGFR (pEGFR), sequence (P00533 25-1210): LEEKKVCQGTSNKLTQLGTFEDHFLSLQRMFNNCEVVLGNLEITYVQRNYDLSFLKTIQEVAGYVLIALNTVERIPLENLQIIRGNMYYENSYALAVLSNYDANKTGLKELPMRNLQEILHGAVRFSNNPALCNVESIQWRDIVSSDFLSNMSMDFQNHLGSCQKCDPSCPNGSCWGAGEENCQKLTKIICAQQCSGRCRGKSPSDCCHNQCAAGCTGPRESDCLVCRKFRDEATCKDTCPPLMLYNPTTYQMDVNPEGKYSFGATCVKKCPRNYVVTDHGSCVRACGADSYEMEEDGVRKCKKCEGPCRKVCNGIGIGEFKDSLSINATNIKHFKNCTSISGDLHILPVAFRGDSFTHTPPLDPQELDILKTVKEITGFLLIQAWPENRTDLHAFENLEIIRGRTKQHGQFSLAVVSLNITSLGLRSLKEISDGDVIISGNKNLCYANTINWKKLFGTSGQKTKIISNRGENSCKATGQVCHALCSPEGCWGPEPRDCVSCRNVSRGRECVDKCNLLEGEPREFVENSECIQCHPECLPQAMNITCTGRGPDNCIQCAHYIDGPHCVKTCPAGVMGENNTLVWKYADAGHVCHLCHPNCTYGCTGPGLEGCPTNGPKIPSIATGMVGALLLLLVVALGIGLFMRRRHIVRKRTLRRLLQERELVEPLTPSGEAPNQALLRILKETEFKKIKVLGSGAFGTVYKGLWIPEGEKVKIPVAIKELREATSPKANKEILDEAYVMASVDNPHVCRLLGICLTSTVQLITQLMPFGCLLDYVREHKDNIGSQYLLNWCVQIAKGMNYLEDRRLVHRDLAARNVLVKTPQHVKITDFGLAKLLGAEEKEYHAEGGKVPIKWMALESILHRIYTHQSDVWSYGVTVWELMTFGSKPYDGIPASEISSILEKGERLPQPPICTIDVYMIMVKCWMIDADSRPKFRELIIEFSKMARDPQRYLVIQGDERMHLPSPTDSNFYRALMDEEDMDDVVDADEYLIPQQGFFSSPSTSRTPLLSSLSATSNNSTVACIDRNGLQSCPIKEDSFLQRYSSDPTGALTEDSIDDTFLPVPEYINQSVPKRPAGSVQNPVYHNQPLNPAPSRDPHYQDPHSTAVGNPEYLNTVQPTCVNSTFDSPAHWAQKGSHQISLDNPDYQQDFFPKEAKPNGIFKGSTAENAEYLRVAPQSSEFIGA

Take `C=CC(=O)N1CCN2CC1COc1cc3ncnc(Nc4ccc(Oc5ccn6ncnc6c5)c(C)c4)c3nc12` (stereo in doubt) [Compound 1, 1-((10S)-4-((4-([1,2,4]triazolo[1,5-a]pyridin-7-yloxy)-3-methylphenyl)amino)-7,8,10,11-tetrahydro-9H-6,10-methanopyrimido[4′,5′:5,6]pyrido[3,2-b][1,4,7]oxadiazonin-9-yl)prop-2-en-1-one]: the IC50 turned out to be 450 nM in test [1], 7.77 nM in the test with Ba/F3 ERBB2 YVMA (setting [3]) and 9.77 nM in test [2].
On the same counts, the results for `C=CC(=O)N1CCN2CC1COc1cc3ncnc(Nc4ccc(Oc5ccn6ncnc6c5)c(C)c4)c3nc12` (stereo in doubt) [Compound 2, 1-((10R)-4-((4-([1,2,4]triazolo[1,5-a]pyridin-7-yloxy)-3-methylphenyl)amino)-7,8,10,11-tetrahydro-9H-6,10-methanopyrimido[4′,5′:5,6]pyrido[3,2-b][1,4,7]oxadiazonin-9-yl)prop-2-en-1-one] are > 10000 nM, 116 nM and 422 nM.
For the compound `C=CC(=O)N1CCN2CC1COc1cc3ncnc(Nc4ccc(Oc5ccc6c(c5)ncn6C)c(C)c4)c3cc12` (stereo in doubt) [Compound 3, 1-((10S)-4-((3-methyl-4-((1-methyl-1H-benzo[d]imidazol-5-yl)oxy)phenyl)amino)-7,8,10,11-tetrahydro-9H-6,10-methano[1,4,7]oxadiazonino[3,2-g]quinazolin-9-yl)prop-2-en-1-one], the IC50 in test [1] is 1470 nM; in the test with Ba/F3 ERBB2 YVMA (setting [3]), 18 nM; in test [2] it was 28.3 nM.
With `C=CC(=O)N1CCN2CC1COc1cc3ncnc(Nc4ccc(Oc5ccc(CC)nc5)c(C)c4)c3nc12` (stereo in doubt) [Compound 22, 1-((10S)-4-((4-((6-ethylpyridin-3-yl)oxy)-3-methylphenyl)amino)-7,8,10,11-tetrahydro-9H-6,10-methanopyrimido[4′,5′:5,6]pyrido[3,2-b][1,4,7]oxadiazonin-9-yl)prop-2-en-1-one], the IC50 in test [1] is 684 nM; in the test on Ba/F3 ERBB2 YVMA (setting [3]), 56.1 nM; in test [2], 70 nM.
Turning to `C=CC(=O)N1CCN2CC1COc1cc3ncnc(Nc4ccc(Oc5ccn6ncnc6c5)c(C)c4)c3cc12` (stereo in doubt) [Compound 4, 1-((10S)-4-((4-([1,2,4]triazolo[1,5-a]pyridin-7-yloxy)-3-methylphenyl)amino)-7,8,10,11-tetrahydro-9H-6,10-methano[1,4,7]oxadiazonino[3,2-g]quinazolin-9-yl)prop-2-en-1-one], the IC50 in test [1] came to 1860 nM; with Ba/F3 ERBB2 YVMA (setting [3]) it was 8.63 nM; in test [2], 7.36 nM.
For `CNC/C=C/C(=O)N1CCN2CC1COc1cc3ncnc(Nc4ccc(Oc5ccn6ncnc6c5)c(C)c4)c3nc12` (stereo in doubt) [Compound 37, (E)-1-((10S)-4-((4-([1,2,4]triazolo[1,5-a]pyridin-7-yloxy)-3-methylphenyl)amino)-7,8,10,11-tetrahydro-9H-6,10-methanopyrimido[4′,5′:5,6]pyrido[3,2-b][1,4,7]oxadiazonin-9-yl)-4-(methylamino)but-2-en-1-one formate], in that order: 3620 nM, 52.3 nM and 28 nM.
`Cc1cc(Nc2ncnc3cc4c(cc23)N2CCN(C(=O)/C=C/CN(C)C)C(CO4)C2)ccc1Oc1ccn2ncnc2c1` (stereo in doubt) [Compound 8, (E)-1-((10R)-4-((4-([1,2,4]triazolo[1,5-a]pyridin-7-yloxy)-3-methylphenyl)amino)-7,8,10,11-tetrahydro-9H-6,10-methano[1,4,7]oxadiazonino[3,2-g]quinazolin-9-yl)-4-(dimethylamino)but-2-en-1-one]: the IC50 in test [1] was > 10000 nM; with Ba/F3 ERBB2 YVMA (setting [4]), > 500 nM; in test [2], 547 nM.
For `[2H]C([2H])([2H])N(C/C=C/C(=O)N1CCN2CC1COc1cc3ncnc(Nc4ccc(Oc5ccn6ncnc6c5)c(C)c4)c3nc12)C([2H])([2H])[2H]` (stereo in doubt) [Compound 36, (E)-1-((10S)-4-((4-([1,2,4]triazolo[1,5-a]pyridin-7-yloxy)-3-methylphenyl)amino)-7,8,10,11-tetrahydro-9H-6,10-methanopyrimido[4′,5′:5,6]pyrido[3,2-b][1,4,7]oxadiazonin-9-yl)-4-(bis(methyl-d3)amino)but-2-en-1-one formic acid], the IC50 in test [1] was 1620 nM; in the test with Ba/F3 ERBB2 YVMA (setting [3]) it was 6.19 nM; in test [2] it was 9.92 nM.
Consider `Cc1cc(Nc2ncnc3cc4c(nc23)N2CCN(C(=O)/C=C/[C@H](C)N(C)C)C(CO4)C2)ccc1Oc1ccn2ncnc2c1` (stereo in doubt) [Compound 30, (4S,E)-1-((10S)-4-((4-([1,2,4]triazolo[1,5-a]pyridin-7-yloxy)-3-methylphenyl)amino)-7,8,10,11-tetrahydro-9H-6,10-methanopyrimido[4′,5′:5,6]pyrido[3,2-b][1,4,7]oxadiazonin-9-yl)-4-(dimethylamino)pent-2-en-1-one], for which the IC50 in test [1] was > 10000 nM; in the test on Ba/F3 ERBB2 YVMA (setting [4]) it was 10.5 nM; in test [2] it was 10.6 nM.
Consider `C=CC(=O)N1CCN2CC1COc1cc3ncnc(Nc4ccc(Oc5ccn6ncnc6c5)c(C)c4)c3cc12` (stereo in doubt) [Compound 5, 1-((10R)-4-((4-([1,2,4]triazolo[1,5-a]pyridin-7-yloxy)-3-methylphenyl)amino)-7,8,10,11-tetrahydro-9H-6,10-methano[1,4,7]oxadiazonino[3,2-g]quinazolin-9-yl)prop-2-en-1-one], for which the IC50 in test [1] was > 10000 nM; with Ba/F3 ERBB2 YVMA (setting [3]), 304 nM; in test [2], 1200 nM.
Take `Cc1cc(Nc2ncnc3cc4c(nc23)N2CCCN(C(=O)/C=C/CN(C)C)C(CO4)C2)ccc1Oc1ccn2ncnc2c1` (single isomer, unassigned) [Example S55, Enantiomer 1, (E)-1-(4-((4-([1,2,4]triazolo[1,5-a]pyridin-7-yloxy)-3-methylphenyl)amino)-8,9,11,12-tetrahydro-6,11-methanopyrimido[4′,5′:5,6]pyrido[3,2-b][1,4,8]oxadiazecin-10 (7H)-yl)-4-(dimethylamino)but-2-en-1-one Enantiomer 1]: the IC50 in test [1] is > 10000 nM; in the test on Ba/F3 ERBB2 YVMA (setting [5]), 5.88 nM.
For the compound `CC#CC(=O)N1CCN2CC1COc1cc3ncnc(Nc4ccc(Oc5ccn6ncnc6c5)c(C)c4)c3cc12` (stereo in doubt) [Compound 17, 1-((10R)-4-((4-([1,2,4]triazolo[1,5-a]pyridin-7-yloxy)-3-methylphenyl)amino)-7,8,10,11-tetrahydro-9H-6,10-methano[1,4,7]oxadiazonino[3,2-g]quinazolin-9-yl)but-2-yn-1-one], the IC50 in test [1] was > 10000 nM; in the test with Ba/F3 ERBB2 YVMA (setting [4]) it was > 500 nM; in test [2] it was 1050 nM.
Consider `Cc1cc(Nc2ncnc3cc4c(nc23)N2CCCN(C(=O)/C=C/CN(C)C)C(CO4)C2)ccc1Oc1ccn2ncnc2c1` (single isomer, unassigned) [Example S55, Enantiomer 2, (E)-1-(4-((4-([1,2,4]triazolo[1,5-a]pyridin-7-yloxy)-3-methylphenyl)amino)-8,9,11,12-tetrahydro-6,11-methanopyrimido[4′,5′:5,6]pyrido[3,2-b][1,4,8]oxadiazecin-10 (7H)-yl)-4-(dimethylamino)but-2-en-1-one Enantiomer 2], for which the IC50 in test [1] is > 10000 nM; in the test on Ba/F3 ERBB2 YVMA (setting [5]), > 500 nM.
